Columns and labels:
[1] = Protolysis constant at an ionic strength of 0.1 M.; type: ADME
[2] = species: Rattus norvegicus; test: In vitro stimulation of norepinephrine release from hippocampal nerve endings.; type: functional; details: Hippocampus
[3] = species: Rattus norvegicus; test: Inhibition of stimulation of NE release by 100 uM of AMPA; type: functional
[4] = molecular target: Glutamate receptor ionotropic, AMPA (Rattus norvegicus, UniProt P19490+P19491+P19492+P19493); test: Inhibition of specific binding of [3H]AMPA to Ionotropic glutamate receptor AMPA in rat brain membranes; type: cell membranes

Row | Compound | pKa [1] | other results
1 | Cc1cccc([N+](=O)[O-])c1O | 7.7 | –
2 | NC(Cc1c([N+](=O)[O-])ccc(O)c1[N+](=O)[O-])C(=O)O (centres undefined) | 3.6 | –
3 | Cc1onc(O)c1C[C@H](N)C(=O)O [(S)-AMPA] | – | EC50 [2]: 6.7 µM
4 | O=[N+]([O-])c1cc2nc(O)c(O)nc2cc1[N+](=O)[O-] [DNQX] | – | IC50 [3]: 41 µM
5 | N[C@@H](Cc1cc([N+](=O)[O-])c(O)c([N+](=O)[O-])c1)C(=O)O | 3.2 | –
6 | NC(Cn1cc([N+](=O)[O-])c(=O)[nH]c1=O)C(=O)O (centres undefined) | 6.4 | EC50 [2]: 15 µM
7 | NC(Cc1cc([N+](=O)[O-])ccc1O)C(=O)O (centres undefined) | 6.4 | –
8 | NC(Cc1cc(O)ccc1[N+](=O)[O-])C(=O)O (centres undefined) | 6.8 | –
9 | NC(Cc1ccccc1O)C(=O)O (centres undefined) | 8.67 | –
10 | Cc1cc([N+](=O)[O-])ccc1O | 7.2 | –
11 | C=C(C)[C@H]1CN[C@H](C(=O)O)[C@H]1CC(=O)O [KAINIC ACID] | – | EC50 [2]: 3.7 µM
12 | NC(Cc1cc([N+](=O)[O-])cc([N+](=O)[O-])c1O)C(=O)O (centres undefined) | 6.4 | IC50 [4]: 25 µM; IC50 [3]: 730 µM
13 | O=C(O)C(O)Cc1cc([N+](=O)[O-])cc([N+](=O)[O-])c1O (centres undefined) | 4.2 | –
14 | NC(Cc1cc(O)c([N+](=O)[O-])cc1[N+](=O)[O-])C(=O)O (centres undefined) | 3.8 | –
15 | NC(Cn1ccc(=O)[nH]c1=O)C(=O)O (racemic) | 9.3 | –
16 | NC(Cc1ccc([N+](=O)[O-])c(O)c1)C(=O)O (centres undefined) | 6.6 | –
17 | NC(Cc1cccc([N+](=O)[O-])c1O)C(=O)O (centres undefined) | 6.6 | –
18 | NC(Cc1ccc(O)c([N+](=O)[O-])c1)C(=O)O (centres undefined) | 6.8 | –
19 | NC(Cc1ccc([N+](=O)[O-])c(O)c1[N+](=O)[O-])C(=O)O (centres undefined) | 3.2 | IC50 [4]: 4.9 µM; EC50 [2]: 74 µM

Reference: ChEMBL document CHEMBL1130171, “Structure--activity studies for alpha-amino-3-hydroxy-5-methyl-4-isoxazolepropanoic acid receptors: acidic hydroxyphenylalanines” (J Med Chem, 1997)
